Laboratory results reported in patent publication US6887895B2, “Pseudolaric acid-B derivatives, their preparation and pharmaceutical compositions” (Shanghai Institute of Materia Medica Chinese Academy of …, priority 2001, dated 2005).
Values after ≈ are worked out from the molar mass of the structure shown. Read-outs that look alike come from different tables or passages of the source. Blank lines part the entries; values can stand above or below the molecule they belong to.

Columns and labels:
[1] = test system: A549 human lung adenocarcinoma cells; assay: A549 proliferation assay (SRB); format: cell-based
Description: (§1) To evaluate the anti-tumor pharmacological activity of the compounds of the invention, the anti-proliferation activity thereof was assayed using P388 murin leukemia cells and A549 human lung adenocarcinoma cells; the anti-angiogenic activity, a newer target of antitumor, was measured using human microvascular endothelial cells (HMEC). Pseudolarix acid-B and hydroxycamptothecin were used as reference compounds in the evaluation.
(§2) P388, A549 and HMEC Proliferation Assay
(§3) Materials: DMEM was purchased from Gibco (Life Technologies, Grand Island, N.Y., USA). Sulforodamine B (SRB) and MTT were obtained from Sigma; TCA […] and Tris base buffer were analytical pure products made in China.
(§4) SRB assay: Tumor (A549 and HMEC) cells in logarithmic growth were plated in DMEM media in the wells of a 96-well plate (5×10^3 cells/90 μL/well) and serial dilutions of the compounds (10 μL) prepared in medium were added. Experiments at each concentration of compounds were performed in triplicate with controls of normal saline and cell-free withered wells. The plates were incubated at 37° C., 5% CO2, for 72 hr. The media were decanted and cells were fixed with cold (4° C.) 10% trichloroacetic acid, followed by incubation at 4° C. for 1 hr. Then plates were washed with deionised water five times and allowed to air dry and stained by addition of 100 μL/well SRB solution [0.4% SRB (Sigma) in 1% acetic acid (W/V)] for 15 min. Following staining, plates were quickly washed five times with 1% acetic acid to remove unbound dye, and allowed to air dry. Bound dye was solubilized with Tris buffer (pH 10.5) prior to reading plates. The OD was measured with a multiwell spectrophotometer (VERSAmax, Molecular Devices, USA) at a wavelength of 520 nm.
(§5) The rate of inhibition on the growth of cancer cells was calculated by the formula: Rate of growth inhibition=[1−(A520 treated/A520 control)]×100%
(§6) The result was also expressed as IC50 (the drug concentration reducing by 50% the absorbance in treated cells, with respect to untreated cells) that was calculated by Logit method. The mean IC50 was determined according to the data from three independent tests.

[2] = test system: P388 murin leukemia cells; assay: P388 proliferation assay (MTT); format: cell-based, murine
Description: as §1, §2, §3
MTT assay: P388 cells were seeded at a density of 1.5×10^5/ml into wells of 96-well plates and incubated with complete medium. After 24 hr, serial dilutions of the compounds (10 μL) prepared in medium were added. Experiments at each concentration of compounds were performed in triplicate with controls of cell-free withered wells and cell-free withered wells at corresponding concentration of compounds, if it is colored. The plates were incubated at 37° C., 5% CO2, for 48 hr. Then, 20 μL aliquots of MTT (Sigma) solution (5 mg/mL) in saline were added directly to all the appropriate wells. The culture was continuously incubated for 4 hr. Then 50 μL “triplex solution” (10% SDS-5% isobutanol- 0.01M HCl) was added into each well. After the plates were incubated at 37° C. overnight, the values of absorbance at 520 nm were measured by using a plate reader (VERSA Max, Molecular Devices).
as §5, §6

[3] = test system: human microvascular endothelial cells (HMEC); assay: HMEC proliferation assay (SRB), anti-angiogenic activity; format: cell-based
Description: as §1, §2, §3, §4, §5
The result was also expressed as IC50 (the drug concentration reducing by 50% the absorbance in treated cells, with respect to untreated cells) that was calculated by Logit method. […]

Candida albicans = assay: Antifungal screening, liquid diluting method; format: cell-based
Text: Screening on Antifungal Activities The action on Candida albicans was observed using liquid diluting method. The drug concentration in the tube in which no growth of fungus observed is the minimun inhibition concentration.

Trichophyton rubrum = assay: Antifungal screening, agar diluting method; format: cell-based
Text: Screening on Antifungal Activities
The action on Trichophyton rubrum was observed using agar diluting method. The drug concentration in the Petridish on which no growth of fungus observed is the minimun inhibition concentration.

Sarcoma 180 cell = assay: Sarcoma 180 tumor growth inhibition in mice; format: in vivo, Kunming strain female mice; conditions: for Tumor weight: S-180 mice; for Inhibition %: tumor growth vs control
Description: (§7) 30 Kunming strain female mice weighing 18-22 g were used. Suspensions of well grown Sarcoma 180 cell were implanted subcutaneously into the right axilla region of the mice, about 4.5-5×10^6 cells/mouse. The animals were grouped randomly 24 hours after the implantation. Daily treatment with drugs or normal saline commenced 1 day after implantation of S-180 cells. Mice were administered by i.p. injection with vehicle or compounds once a day for consecutive 6 days. All the mice were euthanized after the last administration. The mice and the tumors were weighed. The average weights of tumors of each group were calculated and rate of inhibition of tumor growth in vivo was calculated using the following formula: [formula]

[4] = Body weight of Sarcoma 180-bearing mice under treatment; format: in vivo, Kunming strain female mice
Description: as §7

[5] = Homo sapiens, A549 cells, SRB, 72 hr, read-out: IC50
[6] = Mus musculus, P388 cells, MTT, 48 hr, read-out: IC50
[7] = 5 mg/kg i.p. once a day for 6 days
[8] = 10 mg/kg i.p. once a day for 6 days
[9] = 15 mg/kg i.p. once a day for 6 days

Structure (SMILES): COC(=O)C1=CC[C@]23CC[C@H](C(C)(/C=C/C=C(\C)C(=O)Nc4cccc(O)c4)OC2=O)[C@]3(OC(C)=O)CC1 (stereo partly shown) [PEX-15Y]
IC50 [1, 5]: 0.15 µM

Structure (SMILES): CC(=O)O[C@@]12CCC(C(=O)OCC3CCCCC3)=CC[C@@]13CC[C@@H]2C(C)(/C=C/C=C(\C)C(=O)O)OC3=O (stereo partly shown) [PEX-31Y]
IC50 ([2]; Mus musculus, P388, 48 h): < 0.0001 µM
IC50 ([1]; Homo sapiens, A549, 72 h): < 0.0001 µM

Structure (SMILES): CC[C@@]1(O)C(=O)OCc2c1cc1n(c2=O)Cc2cc3cc(O)ccc3nc2-1 [hydroxycamptothecin]
IC50 ([3]; Homo sapiens, HMEC, 72 h): 0.47 µM

Now from value to molecule, other results behind:

IC50 [2, 6]: 0.00026 µM
IC50 [1, 5]: 0.069 µM
Structure (SMILES): COC(=O)C1=CC[C@]23CC[C@H](C(C)(/C=C/C=C(\C)C(=O)O)OC2=O)[C@]3(OC(=O)Cc2ccc(Cl)cc2)CC1 (stereo partly shown) [PEX-24Y]

IC50 [2, 6]: < 0.0001 µM
IC50 [1, 5]: 0.055 µM
MIC (Candida albicans; Candida albicans, read-out: MIC (μg/ml) (Candida albicans)): 6.25 µg/mL (≈ 12.5 µM)
MIC (Trichophyton rubrum; Trichophyton rubrum, read-out: MIC (μg/ml) (Trichophyton rubrum)): 12.5 µg/mL (≈ 25.1 µM)
Structure (SMILES): CC(=O)O[C@@]12CCC(C(=O)OCc3ccco3)=CC[C@@]13CC[C@@H]2C(C)(/C=C/C=C(\C)C(=O)O)OC3=O (stereo partly shown) [PEX-25Y]
IC50 ([3]; Homo sapiens, HMEC cells, SRB, 72 hr, read-out: IC50): 0.001 µM
Tumor weight (Sarcoma 180 cell; [7]): 0.30 ± 0.23 g
Inhibition % (Sarcoma 180 cell; [7]): 64.3%
Tumor weight (Sarcoma 180 cell; [8]): 0.26 ± 0.11 g
Inhibition % (Sarcoma 180 cell; [8]): 69.0%
Tumor weight (Sarcoma 180 cell; [9]): 0.28 ± 0.13 g
Inhibition % (Sarcoma 180 cell; [9]): 66.7%
Body weight (g) At last ([4]; 5 mg/kg i.p. once a day for 6 days, beginning 20.4 g): 21.1 g
Body weight (g) At last ([4]; 10 mg/kg i.p. once a day for 6 days, beginning 20.4 g): 19.7 g
Body weight (g) At last ([4]; 15 mg/kg i.p. once a day for 6 days, beginning 20.5 g): 21.2 g

IC50 ([2]; P388 cells, MTT, 48 hr, read-out: IC50): 0.00083 µM
IC50 ([1]; A549 cells, SRB, 72 hr, read-out: IC50): 0.028 µM
MIC (μg/ml) (Candida albicans) (Candida albicans): 12.5 µg/mL (≈ 28.9 µM)
MIC (μg/ml) (Trichophyton rubrum) (Trichophyton rubrum): 50.0 µg/mL (≈ 116 µM)
Structure (SMILES): COC(=O)C1=CC[C@@]23CC[C@@H]([C@@](C)(/C=C/C=C(\C)C(=O)O)OC2=O)[C@@]3(OC(C)=O)CC1 [Pseudolarix acid-B, pseudolaric acid B, reference compound]
IC50 ([3]; HMEC cells, SRB, 72 hr, read-out: IC50): 0.08 µM
